Columns and labels:
[1] = system: human monocytic leukemia U937 cells; experiment: U937 necroptosis assay (TNFα + QVD, Cell Titer-Glo viability); assay type: cell-based; conditions: U-937, QVD 50 uM, TNFα 100 ng/ml overnight, cellular ATP by Cell Titer-Glo
Procedure: The efficacy of RIP1 inhibitors can be tested […] in vitro using a human monocytic leukemia U937 cells in a necroptosis assay (He, S. et al. 2009. Cell 137(6): 1100-1111). Cells were maintained in RPMI supplemented with 10% fetal bovine serum 100 U/ml penicillin, 100 ug/ml streptomycin. For the assay, cells were suspended at 5e5 cells/ml in phenol red free RPMI supplemented with 1% fetal bovine serum, 100 U/ml penicillin, 100 ug/ml streptomycin. Thirty-five (35) ul of the cell suspension was aliquotted into a white, half area assay plate. Five (5) ul each of QVD (final concentration 50 uM) or compound was added to the cells and incubated at 37° C. for 30 min to 1 h. Following the incubation, 5 ul TNFα (final concentration 100 ng/ml) was added to the cells and the samples were incubated overnight. The next day, cellular levels of ATP was determined using the Cell Titer-Glo Luminescent Cell Viability kit (available from Promega Corporation, Madison, Wis., USA). Viability was measured by quantitating cellular levels of ATP using the Cell Titer-Glo kit. All data are shown as means±standard deviation of the mean.

GST-RipK1(1-375) = biological target: T1, GST-RipK1(1-375) (Homo sapiens, UniProt Q13546); experiment: Fluorescent polarization based binding assay at the ATP binding pocket of RIP1; conditions: FP competition with fluorescently labeled ATP competitive ligand 5 nM; GST-RipK1(1-375) 10 nM; mean of minimum 2 experiments
T1 construct: GST-RipK1 Preparation: His.GST.TEV.RIPK1 1-375; His (N); TEV cleavage site (N); made in house; host or cells: Spodoptera frugiperda (Sf9) insect cells, baculovirus
T1 sequence (Q13546 1-375): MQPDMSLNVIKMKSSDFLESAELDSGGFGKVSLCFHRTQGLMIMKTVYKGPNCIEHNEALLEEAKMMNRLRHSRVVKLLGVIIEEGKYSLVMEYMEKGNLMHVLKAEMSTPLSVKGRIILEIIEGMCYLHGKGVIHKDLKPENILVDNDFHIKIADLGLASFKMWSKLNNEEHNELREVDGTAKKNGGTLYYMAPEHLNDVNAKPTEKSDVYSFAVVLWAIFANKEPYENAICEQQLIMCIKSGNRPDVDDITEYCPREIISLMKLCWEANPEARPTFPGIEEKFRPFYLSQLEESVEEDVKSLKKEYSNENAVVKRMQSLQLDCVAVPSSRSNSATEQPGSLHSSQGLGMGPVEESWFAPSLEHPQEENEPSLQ
Procedure: A fluorescent polarization based binding assay was developed to quantitate
interaction of novel test compounds at the ATP binding pocket of RIP 1, by competition with a fluorescently labeled ATP competitive ligand. GST-RipK1(1-375) was purified from a Baculovirus expression system and was used at a final assay concentration of 10 nM. A fluorescent labeled ligand (14-(2-{[3-({2-{[4-(cyanomethyl)phenyl]amino}-6-[(5-20 cyclopropyl-1H-pyrazol-3-yl)amino]-4-pyrimidinyl}amino)propyl]amino}-2-oxoethyl)16,16,18,18-tetramethyl-6,7,7a,8a,9,10,16,18-octahydrobenzo[2″,3″ ]indolizino[8″,7″:5′,6′]pyrano[3′,2′:3,4]pyrido[1,2-a]indol-5-ium-2-sulfonate (prepared as described in WO2014125444, the disclosure of which is incorporated by reference herein) was used at a final assay concentration of 5 nM. Both the enzyme and ligand were prepared in solutions in 50 mM HEPES pH7.5, 10 mM 25 NaCl, 50 mM MgCl2, 0.5 mM DTT, and 0.02% CHAPS. Test compounds were prepared in neat DMSO and 100 nL was dispensed to individual wells of a multiwell plate. Next, 5 ul GST-RipK1(1-375) was added to the test compounds at twice the final assay concentration, and incubated at room temperature for 10 minutes. Following the incubation, 5 ul of the fluorescent labeled ligand solution, was added to each reaction, at twice the final assay concentration, and incubated at room temperature for at least 15 minutes. Finally, samples were read on an instrument capable of measuring fluorescent polarization. Test compound inhibition was expressed as percent (%) inhibition of internal assay controls. For concentration response experiments, normalized data were fit and pIC50s determined using conventional techniques. The pIC50s are averaged to determine a mean value, for a minimum of 2 experiments.
The RIPK 1 gene [receptor (TNFRSF)-interacting serine-threonine kinase 1] was cloned from human adrenal gland cDNA. Primers were designed from the reference sequence NM_003804.3 with an added CACC Kozak directional tag for cloning into pENTR/TEV/D-TOPO. Gateway® LR cloning was used to site-specifically recombine RIPK1 downstream to an N-terminal HisGST contained within the destination vector pDEST8-His.GST according to the protocol described by Invitrogen.

| IC50 (GST-RipK1(1-375)) | SMILES | IC50 [1] |
| --- | --- | --- |
| 10 nM | CN1C(=O)[C@@H](NC(=O)c2nnc(Cc3ccccc3)[nH]2)CSc2cccn21 [Example 9, (R)-5-Benzyl-N-(5-methyl-4-oxo-2,3,4,5-tetrahydropyrrolo[2,1-b][1,3,4]thiadiazepin-3-yl)-4H-1,2,4-triazole-3-carboxamide] | 5.01 nM |
| 100 nM | Cc1sc(C)c2c1CCC(NC(=O)c1nnc(Cc3ccccc3)[nH]1)C(=O)N2 (stereo not shown) [Example 1, 5-Benzyl-N-(6,8-dimethyl-2-oxo-2,3,4,5-tetra hydro-1H-thieno[3,4-b]azepin-3-yl)-4H-1,2,4-triazole-3-carboxamide] | 398 nM |
| 79.4 nM | Cc1cc2c(s1)CCC(NC(=O)c1nnc(Cc3ccccc3)[nH]1)C(=O)N2 (stereo not shown) [Example 3, 5-Benzyl-N-(2-methyl-5-oxo-5,6,7,8-tetrahydro-4H-thieno[3,2-b]azepin-6-yl)-4H-1,2,4-triazole-3-carboxamide] | 631 nM |
| 39.8 nM | O=C(NC1CCc2[nH]c3ccccc3c2NC1=O)c1nnc(Cc2ccccc2)[nH]1 (stereo not shown) [Example 6, 5-Benzyl-N-(2-oxo-1,2,3,4,5,6-hexahydroazepino[3,2-b]indol-3-yl)-4H-1,2,4-triazole-3-carboxamide] | 251 nM |
| 794 nM | O=C(NC1CCc2oc3c(c2NC1=O)CCCC3)c1nnc(Cc2ccccc2)[nH]1 (stereo not shown) [Example 10, 5-benzyl-N-(2-oxo-2,3,4,5,7,8,9,10-octahydro-1H-benzofuro[3,2-b]azepin-3-yl)-4H-1,2,4-triazole-3-carboxamide] |  |
| 631 nM | Cc1cn(C)c2c1NC(=O)C(NC(=O)c1nnc(Cc3ccccc3)[nH]1)CC2 (stereo not shown) [Example 5, 5-Benzyl-N-(1,3-dimethyl-5-oxo-1,4,5,6,7,8-hexahydropyrrolo[3,2-b]azepin-6-yl)-4H-1,2,4-triazole-3-carboxamide] | > 10000 nM |
| 251 nM | O=C(NC1CCc2sccc2NC1=O)c1nnc(Cc2ccccc2)[nH]1 (stereo not shown) [Example 2, 5-Benzyl-N-(5-oxo-5,6,7,8-tetrahydro-4H-thieno[3,2-b]azepin-6-yl)-4H-1,2,4-triazole-3-carboxamide] | 794 nM |
| 25.1 nM | O=C(N[C@H]1CSc2cccn2NC1=O)c1nnc(Cc2ccccc2)[nH]1 [Example 8, (R)-5-Benzyl-N-(4-oxo-2,3,4,5-tetrahydropyrrolo[2,1-b][1,3,4]thiadiazepin-3-yl)-4H-1,2,4-triazole-3-carboxamide] | 79.4 nM |
| 20 nM | Cc1nsc2c1N(C)C(=O)[C@@H](NC(=O)c1nnc(Cc3ccccc3)[nH]1)CN2 [Example 7, (S)-5-Benzyl-N-(3,4-dimethyl-5-oxo-5,6,7,8-tetrahydro-4H-isothiazolo[4,5-b][1,4]diazepin-6-yl)-4H-1,2,4-triazole-3-carboxamide] | 15.8 nM |
| 794 nM | Cn1ccc2c1CCC(NC(=O)c1nnc(Cc3ccccc3)[nH]1)C(=O)N2 (stereo not shown) [Example 4, 5-Benzyl-N-(1-methyl-5-oxo-1,4,5,6,7,8-hexahydropyrrolo[3,2-b]azepin-6-yl)-4H-1,2,4-triazole-3-carboxamide] | 1260 nM |

— patent US10961258B2, “Heterocyclic amides as kinase inhibitors” (GLAXOSMITHKLINE INTELLECTUAL PROPERTY DEVELOPMENT LIMITED, priority 2015, dated 2021)
